Measurements: US20230027472A1, “TARGETING P73 FOR CANCERS RESISTANT TO BH3 MIMETICS” (BOARD OF REGENTS, THE UNIVERSITY OF TEXAS SYSTEM, priority 2019, published 2023)

Key:
Format in all cases: cell-based
OCI-AML3 cells [1] = assay: Annexin V staining and live cell counting by flow cytometry in OCI-AML3 cells with lentiviral p73 knockdown
Experimental: Apoptosis induction was measured by annexin V staining (Annexin V positive cells (%)), and live cell numbers were measured by counting beads by flow cytometry.

TAp73 and ΔNp73 = TAp73 and ΔNp73 levels in AML cells after (R)-2HG treatment
Text: Results The inventors determined copy numbers of ΔNp73 and TAp73 mRNA levels in 78 AML samples including 31 de novo AML using droplet digital PCR (ddPCR), which allows to determine the absolute quantity of the isoforms expressed, and investigated their clinical and biological relevance. ΔNp73 and TAp73 expression was detected in 93.6% and 98.7% of AML samples at variable levels (mean±SEM, 10.6±5.0, and 106.6±33.7 copies/μL, for ΔNp73 and TAp73, respectively). ΔNp73 and TAp73 mRNA levels were highly correlated (R^2=0.72, P<0.0001). […] However, AML with IDH1/2 mutations had 8.5-fold lower ΔNp73 expression than those with wild-type IDH1/2 (1.8±0.8 vs 15.4±7.7 copies/μL, P=0.0069), with a similar trend for TAp73 (49.0±20.3 vs 138.6±51.4 copies/μL, P=0.056). […] To further explore the regulation of TP73 isoforms, the inventors used MDM2 inhibitor Nutlin-3a to induce p53 which is a transcriptional inducer of ΔNp73. […] AML cells with IDH1/2 mutations are more dependent on Bcl-2 than those without (Chan, Nat Med 2015).

AML cells = assay: Susceptibility of AML cells to Bcl-2 inhibitor ABT-199 (VEN) after (R)-2HG treatment; conditions: AML cells treated with 2HG
MOLM-13 cells [2] = assay: Sensitivity to ABT-199 in MOLM-13 cells with overexpression of p73 isoforms/variants, annexin V and live cell numbers
Experimental: In FIG. 3A, there are immunoblot images of different p73 N-terminal isoforms (TA and ΔN) and C-terminal variants (α, β and γ) protein levels. MOLM13 cells with overexpression of those p73 isoforms/variants was generated by lentiviral transfection. β-actin serves as a loading control. Successful overexpression of p73 isoforms/variants in MOLM-13 cells, which are originally sensitive to ABT-199. […] Apoptosis induction was measured by annexin V staining (Annexin V positive cells (%)), and live cell numbers were measured by counting beads by flow cytometry. […] A p73 isoform ΔNp73γ overexpression induced resistance to ABT-199, indicating a novel resistance mechanism by p73 isoforms/variants to ABT-199 in AML cells.

MOLM-13 cells [3] = assay: Sensitivity of MOLM-13 parent and ABT-199 resistant (ABTR) cells to ABT-199, annexin V and live cell numbers; conditions: MOLM-13 ABTR cells versus parent
Experimental: (§1) In FIG. 2A, there are immunoblot images of two AML cell lines (MOLM-13 and MV4;11 cells) that acquired ABT-199 resistance (ABTR) through long-term exposure to continuous treatment of ABT-199. Parental control cells (Parent) are used for comparison. Histone H3 (H3) serves as a loading control, and relative protein levels were measured as ratios of target proteins and H3 through densitometry. […] In FIG. 2B, there is shown sensitivity of MOLM-13 and MV4;11 parent and ABTR cells to ABT-199. Apoptosis induction was measured by annexin V staining (Annexin V positive cells (%)), and live cell numbers were measured by counting beads by flow cytometry.

MV4;11 cells = assay: Sensitivity of MV4;11 parent and ABT-199 resistant (ABTR) cells to ABT-199, annexin V and live cell numbers; conditions: MV4;11 ABTR cells versus parent
Experimental: as §1

OCI-AML3 cells [4] = assay: Apoptosis induction by Nutlin-3a (specific annexin V induction) in OCI-AML3 cells with vector control or p73 knockdown; conditions: 5 μM Nutlin-3a
Text: (§2) To further explore the regulation of TP73 isoforms, the inventors used MDM2 inhibitor Nutlin-3a to induce p53 which is a transcriptional inducer of ΔNp73.

p73 = p73 protein levels after MDM2 inhibition in AML cells
Text: as §2

`Nc1ncn([C@@H]2O[C@H](CO)[C@@H](O)[C@H]2O)c(=O)n1` [5′-azacitidine] was tested, and the “apoptosis induction (Annexin V positive cells), p73 knockdown versus control” value (OCI-AML3 cells [1]; p73 knockdown) was “enhances apoptosis induction”.
With `O=C(O)CC[C@@H](O)C(=O)O` [(R)-2HG] the “TAp73 and ΔNp73 levels” value (TAp73 and ΔNp73) was “reduced both TAp73 and ΔNp73” and the “susceptibility to the Bcl-2 inhibitor ABT-199 (VEN)” value (AML cells) was “increased susceptibility”.
For `CC1(C)CCC(CN2CCN(c3ccc(C(=O)NS(=O)(=O)c4ccc(NCC5CCOCC5)c([N+](=O)[O-])c4)c(Oc4cnc5[nH]ccc5c4)c3)CC2)=C(c2ccc(Cl)cc2)C1` [ABT-199], the “sensitivity to ABT-199 (apoptosis, live cell numbers)” value (MOLM-13 cells [2]; MOLM-13 cells with TAp73α overexpression) was “still sensitive”, the “sensitivity to ABT-199 (apoptosis, live cell numbers)” value (MOLM-13 cells [2]; MOLM-13 cells with TAp73α overexpression, listed as VEN) was “minimally increased VEN-induced apoptosis” and the “sensitivity to ABT-199 (apoptosis, live cell numbers)” value (MOLM-13 cells [2]; MOLM-13 cells with vector control) was “still sensitive”. The “sensitivity to ABT-199 (apoptosis, live cell numbers)” value (MOLM-13 cells [2]; MOLM-13 cells with ΔNp73β overexpression) was “still sensitive”, the “sensitivity to ABT-199 (apoptosis, live cell numbers)” value (MOLM-13 cells [2]; MOLM-13 cells with ΔNp73γ overexpression) was “resistant” and the “sensitivity to ABT-199 (apoptosis, live cell numbers)” value (MOLM-13 cells [2]; MOLM-13 cells with ΔNp73γ overexpression, listed as VEN) was “striking resistance”. The “sensitivity to ABT-199 (apoptosis, live cell numbers)” value (MOLM-13 cells [3]) was “clearly show resistance”, the “sensitivity to VEN” value (OCI-AML3 cells [1]; lentiviral knockdown of p73) was “enhanced sensitivity” and the “apoptosis induction (Annexin V positive cells), p73 knockdown versus control” value (OCI-AML3 cells [1]; p73 knockdown) was “greater”. For the same molecule, the “live cell numbers, p73 knockdown versus control” value (OCI-AML3 cells [1]; p73 knockdown) was “superior reduction of live cell numbers” and the “sensitivity to ABT-199 (apoptosis, live cell numbers)” value (MV4;11 cells) was “clearly show resistance”.
In the case of `COc1ccc(C2=N[C@@H](c3ccc(Cl)cc3)[C@@H](c3ccc(Cl)cc3)N2C(=O)N2CCNC(=O)C2)c(OC(C)C)c1` [Nutlin-3a], the “specific annexin V induction” value (OCI-AML3 cells [4]; OCI-AML3 cells with Shp73 (knockdown of TAp73 and ΔNp73)) is reported as 61.3±5.2%, the “specific annexin V induction” value (OCI-AML3 cells [4]; OCI-AML3 cells with vector control) is reported as 21.9±1.3% and the p73 protein levels (p73) is reported as “increased p73 protein levels”.
For `CCCCCCCCOC(=O)[C@H](O)CCC(=O)O` [octyl-(R)-2HG], the “TAp73 and ΔNp73 levels” value (TAp73 and ΔNp73) was “reduced both TAp73 and ΔNp73” and the “susceptibility to the Bcl-2 inhibitor ABT-199 (VEN)” value (AML cells) was “increased susceptibility”.
